From patent publication US9120770B2, “Substituted pyridine and pyrazine compounds as PDE4 inhibitors” (DART NEUROSCIENCE (CAYMAN) LTD., priority 2013, dated 2015)

These molecules were tested against PDE4D3 (Homo sapiens, UniProt Q08499).
Chain of PDE4D3 (Q08499 1-673 isoform Q08499-2): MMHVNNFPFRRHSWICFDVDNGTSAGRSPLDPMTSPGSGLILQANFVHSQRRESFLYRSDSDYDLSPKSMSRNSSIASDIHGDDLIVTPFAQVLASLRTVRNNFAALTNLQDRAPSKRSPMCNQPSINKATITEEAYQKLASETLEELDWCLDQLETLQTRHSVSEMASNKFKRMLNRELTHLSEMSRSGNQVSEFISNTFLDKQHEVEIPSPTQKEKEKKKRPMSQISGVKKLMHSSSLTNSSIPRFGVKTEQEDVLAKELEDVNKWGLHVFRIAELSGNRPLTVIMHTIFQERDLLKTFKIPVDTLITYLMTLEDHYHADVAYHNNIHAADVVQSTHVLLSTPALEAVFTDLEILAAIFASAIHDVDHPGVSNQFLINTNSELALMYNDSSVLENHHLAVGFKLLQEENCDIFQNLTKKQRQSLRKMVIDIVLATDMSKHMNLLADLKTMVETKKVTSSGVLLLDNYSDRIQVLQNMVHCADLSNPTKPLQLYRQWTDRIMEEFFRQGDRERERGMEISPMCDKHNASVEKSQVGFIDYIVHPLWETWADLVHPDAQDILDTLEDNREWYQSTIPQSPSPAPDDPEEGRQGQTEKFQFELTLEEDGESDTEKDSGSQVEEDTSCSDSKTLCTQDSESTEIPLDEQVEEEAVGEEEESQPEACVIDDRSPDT

SMILES	EC50 [nM]
CC(C)(O)c1ccc(Cc2cnc(OC(F)F)c(-c3cccc(Cl)c3)c2)cn1 [Example 252, 2-(5-{[5-(3-Chlorophenyl)-6-(difluoromethoxy)pyridin-3-yl]methyl}pyridin-2-yl)propan-2-ol]	100 to 1000
COc1ncc(Cn2cnc(CF)n2)cc1-c1cccc(OC(F)F)c1 [Example 253, 3-[3-(Difluoromethoxy)phenyl]-5-{[3-(fluoromethyl)-1H-1,2,4-triazol-1-yl]methyl}-2-methoxypyridine]	< 100
CCOc1ncc(Cn2cc(CF)nn2)cc1-c1cccc(OC(F)F)c1 [Example 254, 3-[3-(Difluoromethoxy)phenyl]-2-ethoxy-5-{[4-(fluoromethyl)-1H-1,2,3-triazol-1-yl]methyl}pyridine]	100 to 1000
CCOc1cccc(-c2cc(Cn3cnc(CF)n3)cnc2OC(F)F)c1 [Example 255, 2-(Difluoromethoxy)-3-(3-ethoxyphenyl)-5-{[3-(fluoromethyl)-1H-1,2,4-triazol-1-yl]methyl}pyridine]	100 to 1000
COc1ncc(Cn2cnc(CF)n2)cc1-c1ccnc(OC(F)F)c1 [Example 256, 3-[2-(Difluoromethoxy)pyridin-4-yl]-5-{[3-(fluoromethyl)-1H-1,2,4-triazol-1-yl]methyl}-2-methoxypyridine]	< 100
CCOc1ncc(Cn2cnc(CF)n2)nc1-c1cccc(OC(F)F)c1 [Example 257, 3-[3-(Difluoromethoxy)phenyl]-2-ethoxy-5-{[3-(fluoromethyl)-1H-1,2,4-triazol-1-yl]methyl}pyrazine]	1000 to 10000
COc1ncc(Cn2cnc(CF)n2)nc1-c1cccc(Cl)c1 [Example 258, 3-(3-Chlorophenyl)-5-{[3-(fluoromethyl)-1H-1,2,4-triazol-1-yl]methyl}-2-methoxypyrazine]	1000 to 10000
FC(F)Oc1ncc(Cn2cnc(C(F)F)n2)cc1-c1cccc(Cl)c1 [Example 259, 3-(3-Chlorophenyl)-2-(difluoromethoxy)-5-{[3-(difluoromethyl)-1H-1,2,4-triazol-1-yl]methyl}pyridine]	100 to 1000
CCOc1ncc(Cn2cnc(C(F)F)n2)cc1-c1cccc(OC(F)F)c1 [Example 260, 3-[3-(Difluoromethoxy)phenyl]-5-{[3-(difluoromethyl)-1H-1,2,4-triazol-1-yl]methyl}-2-ethoxypyridine]	< 100
COc1ncc(Cn2cnc(C(F)F)n2)cc1-c1ccnc(OC(F)F)c1 [Example 261, 3-[2-(Difluoromethoxy)pyridin-4-yl]-5-{[3-(difluoromethyl)-1H-1,2,4-triazol-1-yl]methyl}-2-methoxypyridine]	< 100
COc1ncc(Cn2ccnn2)cc1-c1cccc(Cl)c1 [Example 262, 3-(3-Chlorophenyl)-2-methoxy-5-(1H-1,2,3-triazol-1-ylmethyl)pyridine]	< 100
CCOc1ncc(Cn2cc(CO)nn2)cc1-c1cccc(OC(F)F)c1 [Example 263, [1-({5-[3-(Difluoromethoxy)phenyl]-6-ethoxypyridin-3-yl}methyl)-1H-1,2,3-triazol-4-yl]methanol]	< 100
CCOc1cccc(-c2cc(Cn3cc(CO)nn3)cnc2OC(F)F)c1 [Example 264, (1-((6-(Difluoromethoxy)-5-(3-ethoxyphenyl)pyridin-3-yl)methyl)-1H-1,2,3-triazol-4-yl)methanol]	< 100
CCOc1ncc(Cn2cc(CO)nn2)nc1-c1cccc(OC(F)F)c1 [Example 265, [1-({6-[3-(Difluoromethoxy)phenyl]-5-ethoxypyrazin-2-yl}methyl)-1H-1,2,3-triazol-4-yl]methanol]	100 to 1000
COc1ncc(Cn2cc(CO)nn2)nc1-c1cccc(Cl)c1 [Example 266, (1-{[6-(3-Chlorophenyl)-5-methoxypyrazin-2-yl]methyl}-1H-1,2,3-triazol-4-yl)methanol]	100 to 1000
COc1ncc(Cn2cc(CO)nn2)nc1-c1cccc(OC(F)F)c1 [Example 267, [1-({6-[3-(Difluoromethoxy)phenyl]-5-methoxypyrazin-2-yl}methyl)-1H-1,2,3-triazol-4-yl]methanol]	100 to 1000
CCOc1ncc(Cn2cc(CO)nn2)nc1-c1cccc(Cl)c1 [Example 268, (1-{[6-(3-Chlorophenyl)-5-ethoxypyrazin-2-yl]methyl}-1H-1,2,3-triazol-4-yl)methanol]	100 to 1000
CCOc1ncc(Cn2cc(C(F)F)nn2)cc1-c1cccc(OC(F)F)c1 [Example 269, 3-[3-(Difluoromethoxy)phenyl]-5-{[4-(difluoromethyl)-1H-1,2,3-triazol-1-yl]methyl}-2-ethoxypyridine]	100 to 1000
COc1ncc(Cn2cc(C(=O)O)cn2)cc1-c1cccc(Cl)c1 [Example 270, 1-{[5-(3-Chlorophenyl)-6-methoxypyridin-3-yl]methyl}-1H-pyrazole-4-carboxylic acid]	> 10000
COc1ncc(Cn2cc(C(N)=O)cn2)cc1-c1cccc(Cl)c1 [Example 271, 1-{[5-(3-Chlorophenyl)-6-methoxypyridin-3-yl]methyl}-1H-pyrazole-4-carboxamide]	100 to 1000
COc1ncc(Cn2cc(CO)cn2)cc1-c1cccc(OC(F)F)c1 [Example 272, [1-({5-[3-(Difluoromethoxy)phenyl]-6-methoxypyridin-3-yl}methyl)-1H-pyrazol-4-yl]methanol]	< 100
OCc1cncn1Cc1cnc(OC(F)F)c(-c2cccc(Cl)c2)c1 [Example 273, (1-{[5-(3-Chlorophenyl)-6-(difluoromethoxy)pyridin-3-yl]methyl}-1H-imidazol-5-yl)methanol]	1000 to 10000
OCc1cn(Cc2cnc(OC(F)F)c(-c3cccc(Cl)c3)c2)cn1 [Example 274, (1-{[5-(3-Chlorophenyl)-6-(difluoromethoxy)pyridin-3-yl]methyl}-1H-imidazol-4-yl)methanol]	< 100
COc1ncc(Cn2ccc(CO)n2)cc1-c1cccc(OC(F)F)c1 [Example 275, [1-({5-[3-(Difluoromethoxy)phenyl]-6-methoxypyridin-3-yl}methyl)-1H-pyrazol-3-yl]methanol]	< 100
CCOc1ncc(Cn2cc(CO)cn2)cc1-c1cccc(Cl)c1 [Example 276, (1-{[5-(3-Chlorophenyl)-6-ethoxypyridin-3-yl]methyl}-1H-pyrazol-4-yl)methanol]	< 100
CCOc1ncc(Cn2cc(Cl)c(CO)n2)cc1-c1cccc(Cl)c1 [Example 277, (4-Chloro-1-{[5-(3-chlorophenyl)-6-ethoxypyridin-3-yl]methyl}-1H-pyrazol-3-yl)methanol]	100 to 1000
CCOc1ncc(Cn2ncc(Cl)c2CO)cc1-c1cccc(Cl)c1 [Example 278, (4-Chloro-1-{[5-(3-chlorophenyl)-6-ethoxypyridin-3-yl]methyl}-1H-pyrazol-5-yl)methanol]	100 to 1000
O=C(O)c1ccc(Cc2cnc(OC(F)F)c(-c3cccc(Cl)c3)c2)cc1 [Example 280, 4-{[5-(3-Chlorophenyl)-6-(difluoromethoxy)pyridin-3-yl]methyl}benzoic acid]	1000 to 10000
